Patent US8377934B2, “Use of stilbene derivatives for treatment and prevention of aquatic mold infections” (State of Israel, Ministry of Agriculture & Rural …, priority 2006, dated 2013)
≈ marks a conversion by molar mass, not a printed value.

How the values were obtained:
[1] = test system: S. parasitica CBS 540.67; assay: Broth macrodilution susceptibility testing (zoospores and cysts); format: cell-based, Saprolegnia parasitica
Description: (§1) Two methods were used, each suitable for a different phase of the asexual life cycle of Saprolegnia spp.: i) the broth macrodilution method, for determination of susceptibility of zoospores and cysts; and ii) the agar-dilution method for determination of susceptibility of filamentous hyphae. Each compound was tested three times in each method. Malachite Green was used as positive control.
(§2) This method is a modification of the method used for molds according to EUCAST 7.1 (European Committee on Antibiotic Susceptibility Testing) and CLSI/NCCLS M27-A2 (Clinical Laboratory Standards Institute/National Committee for Clinical Laboratory Standards). For inoculum preparation, S. parasitica isolates were cultured on GP-PS for 7 days with sterile clover seeds at 18° C. […] Cysts and zoospores free from hyphae were collected, and an inoculum of ˜10^3 CFU/ml as measured by hemacytometer counting, was prepared in RPMI. Fluorescent Brightener 28 stock solution was prepared by adding 40% KOH gradually to a 10 mg/ml solution in water, until it was clear, then it was filtered twice through a 0.2 μm cellulose acetate nonpyrogenic sterile filter (Schleicher & Schuell, Dassel, Germany).
(§3) Final drug concentrations in the test tubes ranged from 1×10^4 to 0.01 mg/L. Inoculum of 0.9 ml was added to each of a sterile tube containing 0.1 ml of the serially diluted drug. Two tubes containing drug-free medium and two tubes containing drug-free inoculum were used as controls. The inoculated tubes were incubated at room temperature (15-20° C.) for 24 h. The growth in each tube was then evaluated visually.

[2] = test system: S. parasitica T-1; assay: as above; format: cell-based, Saprolegnia parasitica; conditions: 24 h
Description: as §1, §2, §3

[3] = test system: various fish species; assay: Toxicity testing in various fish species; format: in vivo; conditions: all five fish species tested, 15° C., up to 96 h
Description: LC50 values for Blankophor® BA in various fish species were determined as in Example 2, except that fish were acclimated to 21° C. for three weeks, and then to 15° C. for another two weeks before the initiation of the experiment. Following acclimation to 15° C., Blankophor® BA (100, 200, 500, 1,000 or 2,000 mg/L) was added to the tanks, and mortality of fish was recorded up to 96 h. […] The fish used were: hybrid tilapia (Oreochromis niloticus X O. aureus), average weight 20 g; grey mullet (Mugil cephalus), average weight 70 g; common carp (Cyprinus carpio), average weight 25 g; hybrid striped bass (Morone saxatilis X M. chrysops), average weight 25 g, and grass carp (Ctenopharyngodon idella), average weight 25 g.

[4] = test system: Saprolegnia parasitica T-1; assay: Tilapia-saprolegniosis early infection model; format: in vivo, Hybrid tilapia (Oreochromis niloticus X Oreochromis aureus)
Description: Hybrid tilapia (Oreochromis niloticus X Oreochromis aureus), with an average weight of 20 g were treated against ectoparasites using 25 μg/ml of formaldehyde (37% v/v) two weeks prior to the experiment, and were maintained at a constant temperature of 21° C. in a 100 liter polyethylene tank. The water tank was cooled from an initial temperature of 21° C. to 14° C. over a period of 10 days. The water was kept at a constant temperature of 14° C. and the fish were acclimated for 4 days. Physical stress of abrasion was then applied by agitating 40 fish for 10 seconds within a plastic net (30×20 cm). Following this, a sterile stainless steel tea infuser containing 60 clover-seeds covered with hyphae of Saprolegnia parasitica T-1 (7 day old culture on GP-PS medium at 18° C.) was added to each tank, in which the fish density was 20 fish per 100 liters. This treatment lasted 48 h and allowed the dispersion of zoospores that were produced. The density of the zoospores in the water was determined according to the method described below, and was estimated as 5×10^2-2×10^3 zoospores per liter. The fish were then transferred to different tanks, and treated with Blankophor® BA (200, 100, 50 or 25 mg/L) or Malachite Green (0.25 mg/L) for 8 h at 13-14° C., with 10 fish per 100 L water. The treatments were applied on 2nd, 4th and 6th day following initiation of the experiment. The fish were monitored for 14 days for the presence of any lesion covered with hyphae, indicative of Saprolegnia infection. Skin biopsies of diseased and moribund fish were checked microscopically (10× and 40× magnification). Morbidity and mortality was monitored daily. Moribund and or dead fish were removed from all tanks during the experimental period.
The determination of zoospore density in the water was performed according to Willoughby, L. G. (1994) Fungi and fish diseases, Pisces Press, Stirling, Scotland p. 57.
In brief, a 1 liter sample of water from the 100 liter tank was divided into 1 and 10 ml aliquots in sterile Petri dishes. Each sample was diluted with water to give a final volume of 20 ml and then one sterile clover seed was added in order to attract and keep the zoospores. All the water samples were incubated at room temperature for 72 h allowing spore germination. The density of the zoospores was determined according to the number of seeds covered with visible mycelium.
Treatments were carried out on the 2nd, 4th and 6th days after the initiation of the infection, and each treatment was for a period of 8 h. Fish treated with 0.25 mg/L Malachite Green served as a positive treatment control. Fish were monitored for 14 days. […] All fish treated with Blankophor BA survived for at least 10 days following initiation of the infection, in contrast to untreated fish which progressively died from the 3rd day.
Due to the high efficacy of the treatment with 100 mg/L Blankophor® BA, additional experiments were performed using lower concentrations of Blankophor® BA (50 and 25 mg/L). As in the previous experiments, infected fish were treated in tanks containing different concentrations of the compound on the 2nd, 4th and 6th days after the initiation of the infection. In addition, two additional treatment regimens were added i.e. 50 mg/L (administered on the 2nd and 9th days after initiation of the infection) and 100 mg/L (administered on the 2nd day after initiation of the infection).

[5] = test system: ICR mice; assay: Intravenous maximal tolerated dose in mice; format: in vivo; conditions: male ICR mice
Description: Blankophor® BA was prepared at various concentrations in 5% dextrose and filter sterilized by passage through a sterile 0.2 μm pore size cellulose acetate filter (Schleicher & Schuell, Dassel, Germany). Male albino ICR mice (weight 30 g) were injected through the tail vein with various doses of Blankophor® BA. Each dosage form was administered intravenously as single bolus injection of 0.1 ml of the same dose every 10 min to a group of 10 mice until death was observed. The survival of mice that received the maximal tolerated dose (MTD) was monitored for 8 days.

[6] = test system: Daphnia sp.; assay: Toxicity to zooplankton (motility); format: in vivo; conditions: 100 and 1,000 mg/L, 48 h
Description: Daphnia sp. is a small (0.2 to 5 mm in length) planktonic crustacean, commonly used as a model for aquatic toxicity.
Daphnia (˜1,000 […]/L water) was exposed to Blankophor® BA 100 and 1,000 mg/L). The experiment was carried out in covered flasks (100 ml/per flask), equipped with air supply. The flasks were incubated at room temperature for 48 h, and the Daphnia motility was recorded.

Row | Compound | MIC, Macrodilution ([1]; S. parasitica CBS 540.67, 24 h, 15-20° C., geometric mean of three tests) | MIC, Macrodilution ([2]; S. parasitica T-1, 15-20° C., geometric mean of three tests) | LC50 [3] | preventing and treating saprolegniosis in tilapia fish ([4]; 25 mg/liter for 8 hours) | clinical observation, lesions ([4]; 50 and 100 mg/L) | culture for Saprolegnia ([4]; 50 and 100 mg/L) | survival following initiation of the infection ([4]; 100 and 200 mg/L, 8 h on 2nd, 4th and 6th day, all treated fish) | therapeutic efficacy (survival of fish) ([4]; 100 and 200 mg/L, 8 h on 2nd, 4th and 6th day, monitored 14 days) | Therapeutic efficacy ([4]; Table 4 summary) | efficacy in preventing and treating early stage saprolegniosis ([4]; even at a concentration as low as 25 mg/L, also 50 mg/L (days 2, 9) and 100 mg/L (day 2)) | maximal tolerated dose (MTD) [5] | Daphnia motility versus non-exposed control [6] | MIC ([1]; Saprolegnia parasitica, CBS540, 24 h, read-out: MIC, Macrodilution) | MIC ([2]; Saprolegnia parasitica, read-out: MIC, Macrodilution) | fish died within 14 days ([4]; 100 mg/L on 2nd, 4th and 6th days)
1 | O=S(=O)([O-])c1cc(Nc2nc(Nc3ccccc3)nc(N(CCO)CCO)n2)ccc1C=Cc1ccc(Nc2nc(Nc3ccccc3)nc(N(CCO)CCO)n2)cc1S(=O)(=O)[O-].[K+].[Na+] [Blankophor® BA] | 200 mg/L | 100 mg/L | greater than 2000 mg/L | effective | free of lesions | negative upon culture | at least 10 days | as effective as Malachite Green | Very Effective | highly effective | > 1 g/kg | no difference |  |  | 
2 | C=O [Formaldehyde] |  |  |  |  |  |  |  |  |  |  |  |  | 100 µg/mL (≈ 3.33 mM) | 100 µg/mL (≈ 3.33 mM) | 70%
